pIC50: −log10 of the molar value.
These molecules were tested against human AD brain homogenates (Homo sapiens, UniProt P05067) (assay: Tissue homogenate binding assay (competition with [3H]-DMAB)). Settings: human AD brain (frontal cortex) tissue homogenate; radioligand [3H]-DMAB 1.5 nM; 90 minutes at room temperature.
Procedure: Homogenates from AD and non-AD human brain samples were assessed for their immunoreactivity to anti-Aβ antibody 6E10. The highest and lowest levels of 6E10 immunoreactivity were chosen for the AD group and the non-AD control group, respectively. Candidate Aβ compounds were initially selected based on their structural similarity to published amyloid ligands and then for high affinity in competing with [^3H]PIB binding to AD brain homogenates. These compounds were radiolabeled with [^3H] and tested for binding affinity to human AD brain homogenates as well as binding to human non-AD brain homogenates. [^3H]-DMAB (see structure below) was selected based from these candidates based on its binding affinity for human AD brain homogenates, and minimal binding to non-AD control homogenates. A low fraction of non-displaceable binding was also an important criterion.
PET radiotracer candidate compounds were then selected based on their high affinity competition with [^3H]-DMAB in binding to AD brain homogenates. These PET radiotracer candidate compounds were tested to determine if they were effective PgP substrates. Those PET radiotracer candidate compounds with little PgP substrate activity were radiolabeled with [^3H] or [^18F] and tested for binding affinity to human AD brain homogenates as well as binding to human non-AD brain homogenates and in autoradiographic studies using human AD and non-AD brain slices. Candidate radioligands were selected based on their strong binding affinity for human AD brain homogenates, and minimal binding to non-AD control homogenates. A low fraction of non-displaceable binding was also an important criterion. Minimization of white matter binding was an important criterion.
Postmortem frozen human brain samples from donors with clinical diagnosis of Alzheimer's diseases (AD) or normal control subjects (non-AD) were purchased from Analytical Biological Services Inc., at 701-4 Cornell Business Park, Wilmington, Del. […]
[^3H]-DMAB was synthesized at a specific activity of ˜80 Ci/mmol. […] Total binding was defined in the absence of competing compound, and non-displaceable binding was determined in the presence of 1 μM unlabeled self block. […] Incubation was carried out at room temperature (25° C.) for 90 minutes, and then the assay samples were filtered onto GF/C filters using Skatron 12 well harvester, washing on setting 5−5−5 ((˜3×2 ml) ice cold buffer (PBS, pH 7.4). GF/C filter papers for the Skatron harvester were pre-soaked in 0.1% BSA for 1 hour at room temperature before use. Filters were punched into scintillation vials and counted in 2 mL Ultima Gold on Perkin Elmer Tri-Carb 2900TR for 1 minute. The data analysis was done with Prism software. All assays were done in triplicate, and in the laboratory designated for studies using human tissues.

human AD brain homogenates, sequence (P05067 672-711 limits assumed): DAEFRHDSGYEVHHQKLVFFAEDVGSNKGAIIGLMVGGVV

Row | SMILES | pIC50
1 | N#Cc1ccc2cc(-c3cnc4[nH]ccc4c3)[nH]c2c1 | 7.10
2 | Cc1ccc2cc(-c3ccc(-n4ccnc4)nc3)[nH]c2c1 | 6.61
3 | CNc1ccc(-c2cc3ccc(Cl)cc3[nH]2)cn1 | 7.40
4 | COc1ccc2[nH]c(-c3ccc(-n4cncn4)nc3)cc2c1 | 8.00

From patent US20110076230A1, “Novel Substituted Indoles” (priority 2008, published 2011)
